Test results reported in patent publication US20260101892A1, “METHOD TO INHIBIT PROLIFERATION OF A PHYTOPATHOGEN ON PLANTS AND COMPOSITIONS USED FOR THIS PURPOSE” (CYSBIO APS, priority 2022, published 2026).
Read-outs that look alike come from different tables or passages of the source. Marks after values point to notes of the source that are not given here.

What was measured:
E. coli [1] = conditions: cited from earlier work; for Planktonic growth A600/min (×10^−3): LB medium, 30° C., 24 hours; for Planktonic growth Reduction (%): (compound − control) × 100 / control, negative = reduction; for biocidal effect: at the concentrations tested by Catto et al. (0.183-1830 μM)
E. coli [2] = conditions: cited from earlier work; for Cell adhesion Reduction (%): (compound − control) × 100 / control, negative = reduction; for anti-biofilm activity (cell adhesion): at the concentrations tested by Catto et al. (0.183-1830 μM); for concentrations at which anti-biofilm efficacy is shown: Catto et al., table 1
Alternaria alternata = assay: Post-harvest preservation of capsicums; assay type: in vivo; conditions: capsicums sprayed twice, 10° C., followed 25 days, triplicate
Procedure: To investigate if zosteric acid and/or coumaric acid can protect fruit and vegetables against post-harvest infection with different fungi, zosteric and coumaric acids fungicidal effect was tested in capsicums and lemons infected with Alternaria alternata and Penicillium digitatum, respectively. The tests were performed by acquiring the relevant fruit and vegetables from the local supermarket. Both fruit and vegetables were bought as organic produce to ensure a minimum of pesticides had already been applied. […] Each application treatment was performed in triplicate on three separate pieces of produce. After treatment, the produce was allowed to dry in a sterile laminar flow cabinet followed by a second round of application and drying. The produce was then inoculated with the relevant fungal spores using a grafting stick. […] The inoculated produce was subsequently placed in […] plastic bags to prevent contamination with other organisms and to prevent the produce from drying out due to air circulation in the incubator. The wrapped capsicums and lemons were placed at 10° C. and the fungal growth followed by measuring the diameter of the growth from the point of inoculation for 25 days.

[3] = tested on: European grapes (Vitis vinifera); assay: Phytotoxicity evaluation in the grapevine downy mildew trial; conditions: 5% treatment, Example 9 trial

| Structure (SMILES) | Planktonic growth A600/min (×10^−3) (E. coli [1]; 0.183 μM) | Planktonic growth Reduction (%) (E. coli [1]; 0.183 μM) | Planktonic growth A600/min (×10^−3) (E. coli [1]; 1.83 μM) | Planktonic growth Reduction (%) (E. coli [1]; 1.83 μM) | Planktonic growth A600/min (×10^−3) (E. coli [1]; 18.3 μM) | Planktonic growth Reduction (%) (E. coli [1]; 18.3 μM) | Planktonic growth A600/min (×10^−3) (E. coli [1]; 183 μM) | Planktonic growth Reduction (%) (E. coli [1]; 183 μM) | Planktonic growth A600/min (×10^−3) (E. coli [1]; 1830 μM) | Planktonic growth Reduction (%) (E. coli [1]; 1830 μM) | Cell adhesion Reduction (%) (E. coli [2]; 0.183 μM) | Cell adhesion N. adhered cells (×10^7) (E. coli [2]; 0.183 μM) | Cell adhesion Reduction (%) (E. coli [2]; 1.83 μM) | Cell adhesion N. adhered cells (×10^7) (E. coli [2]; 1.83 μM) | Cell adhesion Reduction (%) (E. coli [2]; 18.3 μM) | Cell adhesion N. adhered cells (×10^7) (E. coli [2]; 18.3 μM) | Cell adhesion Reduction (%) (E. coli [2]; 183 μM) | Cell adhesion N. adhered cells (×10^7) (E. coli [2]; 183 μM) | Cell adhesion Reduction (%) (E. coli [2]; 1830 μM) | Cell adhesion N. adhered cells (×10^7) (E. coli [2]; 1830 μM) | other results |
| --- | --- | --- | --- | --- | --- | --- | --- | --- | --- | --- | --- | --- | --- | --- | --- | --- | --- | --- | --- | --- | --- |
| O=C(O)/C=C\c1ccc(OS(=O)(=O)O)cc1 [Cis zosteric acid, cis-zosteric acid] | 1.31 ± 0.13^a A600/min (×10^−3) | 2.28% | 1.31 ± 0.01^a A600/min (×10^−3) | 1.66% | 1.31 ± 0.03^a A600/min (×10^−3) | 2.24% | 1.24 ± 0.03^a A600/min (×10^−3) | −3.39% | 1.22 ± 0.03^a A600/min (×10^−3) | −4.98% | 98.02% | 3.79 ± 0.61^c ×10^7 | 92.49% | 3.69 ± 0.41^c ×10^7 | 84.50% | 3.54 ± 0.20^c ×10^7 | 9.90% | 2.11 ± 0.14^bd ×10^7 | 124.16% | 4.30 ± 1.01^c ×10^7 | biocidal effect (E. coli [1]): no biocidal nor anti-biofilm activity; anti-biofilm activity (cell adhesion) (E. coli [2]): no biocidal nor anti-biofilm activity; anti-biofilm activity (cell adhesion) (E. coli [2]; listed as cis-isomer of zosteric acid): no activity |
| O=C(O)/C=C\c1ccccc1 [Cis-cinnamic acid, cis-cinnamic acid] | 1.32 ± 0.04^ab A600/min (×10^−3) | 2.71% | 1.28 ± 0.07^ab A600/min (×10^−3) | −0.56% | 1.30 ± 0.03^ab A600/min (×10^−3) | 1.27% | 1.24 ± 0.05^a A600/min (×10^−3) | −3.17% | 0.88 ± 0.02^c A600/min (×10^−3) | −31.64% | 28.52% | 2.46 ± 0.17^b ×10^7 | 23.00% | 2.36 ± 0.26^b ×10^7 | −29.61% | 1.35 ± 0.28^b ×10^7 | 164.82% | 5.08 ± 0.53^c ×10^7 | 183.29% | 5.43 ± 0.76^c ×10^7 | anti-biofilm activity (cell adhesion) (E. coli [2]): promotes biofilm formation at all concentrations tested |
| O=C(O)/C=C\c1ccc(O)cc1 [Cis-coumaric acid, cis-coumaric acid] | 1.29 ± 0.07^a A600/min (×10^−3) | 0.30% | 1.27 ± 0.05^a A600/min (×10^−3) | −0.88% | 1.27 ± 0.04^a A600/min (×10^−3) | −1.26% | 1.28 ± 0.06^a A600/min (×10^−3) | −0.16% | 1.25 ± 0.02^a A600/min (×10^−3) | −2.25% | −27.34% | 1.39 ± 0.15^abc ×10^7 | −14.39% | 1.64 ± 0.11^bc ×10^7 | −4.30% | 1.83 ± 0.14^bc ×10^7 | −15.26% | 1.62 ± 0.19^bc ×10^7 | 184.36% | 5.45 ± 1.00^e ×10^7 | biocidal effect (E. coli [1]): no biocidal activity; anti-biofilm activity (cell adhesion) (E. coli [2]): strongly reduced anti-biofilm activity |
| O=C(O)/C=C/c1ccc(OS(=O)(=O)O)cc1 [Trans zosteric acid, trans-zosteric acid] | 1.32 ± 0.06^a A600/min (×10^−3) | 2.86% | 1.31 ± 0.04^a A600/min (×10^−3) | 1.76% | 1.29 ± 0.04^a A600/min (×10^−3) | 0.11% | 1.30 ± 0.04^a A600/min (×10^−3) | 1.07% | 1.30 ± 0.04^a A600/min (×10^−3) | 1.21% | 44.59% | 2.77 ± 0.17^d ×10^7 | −19.76% | 1.54 ± 0.29^c ×10^7 | −19.34% | 1.55 ± 0.19^c ×10^7 | −27.67% | 1.39 ± 0.13^c ×10^7 | −70.56% | 0.56 ± 0.12^a ×10^7 | biocidal effect (E. coli [1]): no biocidal effect; concentrations at which anti-biofilm efficacy is shown (E. coli [2]): > 1.83 µM; anti-biofilm activity (cell adhesion) (E. coli [2]; listed as trans-isomer of zosteric acid): highly effective |
| O=C(O)/C=C/c1ccccc1 [Trans-cinnamic acid, trans-cinnamic acid] | 1.24 ± 0.04^abcd A600/min (×10^−3) | −3.32% | 1.22 ± 0.01^abcdf A600/min (×10^−3) | −4.74% | 1.19 ± 0.04^bcdef A600/min (×10^−3) | −7.58% | 1.14 ± 0.05^def A600/min (×10^−3) | −11.37% | 0.83 ± 0.02^h A600/min (×10^−3) | −35.10% | −34.95% | 1.25 ± 0.43^cdef ×10^7 | −38.77% | 1.17 ± 0.17^cdf ×10^7 | −7.37% | 1.78 ± 0.10^bcef ×10^7 | −25.03% | 1.44 ± 0.15^bcdef ×10^7 | −31.11% | 1.32 ± 0.28^cdef ×10^7 | concentrations at which anti-biofilm efficacy is shown (E. coli [2]): > 0.183 µM |
| O=C(O)/C=C/c1ccc(O)cc1 [Trans-coumaric acid, trans-coumaric acid] | 1.31 ± 0.03ab A600/min (×10^−3) | 2.06% | 1.26 ± 0.04abc A600/min (×10^−3) | −1.72% | 1.23 ± 0.02abc A600/min (×10^−3) | −3.99% | 1.23 ± 0.06abc A600/min (×10^−3) | −3.87% | 0.97 ± 0.04e A600/min (×10^−3) | −24.17% | 19.37% | 2.29 ± 0.16b ×10^7 | −46.05% | 1.03 ± 0.14ce ×10^7 | −25.80% | 1.42 ± 0.24de ×10^7 | −22.36% | 1.49 ± 0.14de ×10^7 | −36.38% | 1.22 ± 0.27cde ×10^7 | biocidal effect (E. coli [1]): displays both biocidal and antibiofilm effect; anti-biofilm activity (cell adhesion) (E. coli [2]): displays both biocidal and antibiofilm effect |
| O=C(O)/C=C/c1ccc(O)cc1 [coumaric acid] |  |  |  |  |  |  |  |  |  |  |  |  |  |  |  |  |  |  |  |  | time after inoculation until A. alternata growth was displayed (Alternaria alternata): 25 days; phytotoxicity [3]: 23.5% |
